Data from patent US11413267B2, “Methods and compositions for inhibition of ATR and FANCD2 activation” (priority 2012, dated 2022).

Key:
HeLa cells = experiment: DNA homologous recombination repair assay (pHPRT-DRGFP / I-SceI); format: cell-based, human; conditions: for GFP cell (%): chromosomal breaks generated by I-SceI endonuclease expression, 48 h
Text: ATR function is also linked to DNA repair via its coupled targets (Sorensen C S, et al. Nat Cell Biol 2005). To examine the effect of benzopyran-4-one derivatives treatment on DNA repair, we performed a homologous recombination repair (HRR) assay in HeLa cells. DNA constructs of the recombination substrate pHPRT-DRGFP, in which the I-SceI site lies within 1 copy of 2 mutated tandem repeated GFP genes, and the I-SceI endonuclease expression vector pCBASceI, were originally constructed by Dr. M. Jasin (25). In brief, we generated a stable pHPRT-DRGFP construct in HeLa cells, and evaluated the chromosomal breaks generated by I-SceI endonuclease expression. Six hours after pCBASceI was delivered into the cells, complete medium with or without Protoapigenone (I-1) or compound II-1 was replaced onto the cells. Forty-eight hours after delivery, the efficiency of chromosomal HRR was obtained as the percentage of GFP-positive cells, which was assessed by flow cytometry.

synchronized cells = experiment: Double-thymidine cell cycle synchronization assay (flow cytometry); format: cell-based; conditions: for Percentage of G2/M cells compared with control group, in words: 9 hours of treatment after release
Text: ATR are involved in DNA replication. […] In the results of double-thymidine cell cycle synchronization assay, according to the Table 4 which sorted out from FIGS. 21-23, the unsynchronized cells (FIG. 21(a)) become synchronization by using this method, and 97% of cells were stopped at G1/S boundary after two cycles of thymidine blocks (FIG. 21(b)). Those synchronized cells released from thymidine blockade and allowed progress into S phase in presence or absence of protoapigenone (I-1) and compound II-1.
To evaluate the effect of DNA damage checkpoint activation on cell cycle distribution, the cells were harvested at indicated time points and fixed with methanol for at least 2 h. The DNA was then stained with a solution containing propidium iodide (PI) and RNase A (Sigma-Aldrich). Fluorescently labeled cells were subsequently analyzed by the flow cytometer (LSR II; BD Biosciences) with a suitable selection of excitation and emission wavelengths. The percentages of different fluorescent cell populations were analyzed using WinMDI Ver. 2.9 (The Scripps Research Institute).

[1] = test system: DDR signaling (Chk2 Thr68, Chk1 Ser345 phosphorylation); experiment: Immunoblot of DDR signaling after compound alone (no DNA damage); format: cell-based, human
Description: Since mitomycin C can induce DDR in many cancers, we investigated what kind of DDR signaling was activated by Protoapigenone (I-1). […] We repeated the benzopyran-4-one derivatives experiment on lung and breast carcinoma cell lines A549 and MDA-MB-231 cells, respectively, and obtained similar results. Consistently, no marked changes in Chk1 and Chk2 phosphorylation signaling were detected even at high doses of either drug for as long as 8 h after drug treatment (FIGS. 3(a) and 3(b)).
(§1) Cell lysate preparations, gel electrophoresis, and immunoblotting were performed as previously described (23). The binding of primary antibodies were detected by horseradish peroxidase-coupled secondary antibodies (Jackson ImmunoResearch) followed by enhanced chemiluminescence (ECL) (Millipore). The images of non-saturated bands were captured using a luminescent image analyzer (LAS-4000 mini; Fujifilm). The antibodies used in this study are listed in supplementary materials.

[2] = test system: ATR-dependent Chk1 phosphorylation; experiment: Immunoblot of DNA damage-induced Chk1 phosphorylation; format: cell-based, human
Text: (§2) We hypothesized that genes with functions associated with DNA damage checkpoints and/or DNA repair might be targeted by benzopyran-4-one derivatives. To test this hypothesis, we assessed the effects of benzopyran-4-one derivatives on DDR induced by H2O2. […] In response to DNA double-strand breaks (DSBs), FANCD2 is known to be monoubiquitinated on K561 (FANCD2-Ub) in an ATR-dependent manner to stimulate repair (Andreassen P R, et al. Genes Dev 2004).
(§3) To elucidate the specificity of the benzopyran-4-one derivatives inhibition on ATR-mediated signaling, we compared the change between cells treated with benzopyran-4-one derivatives or the ATM-specific inhibitor KU55933 before the induction of DDR.
(§4) MDA-MB-231 (breast adenocarcinoma; ATCC HTB-26, BCRC 60425) and A549 (lung adenocarcinoma; ATCC CCL-185, BCRC 60074) human cell lines were purchased from Bioresource Collection and Research Center (BCRC, Hsinchu, Taiwan), and were authenticated by American Type Culture Collection (ATCC, Manassas, Va.). U2OS (osteosarcoma), HeLa (cervical adenocarcinoma), and HEK 293T (embryonic kidney cells) human cell lines were provided by Dr. Sheau-Yann Shieh (Institute of Molecular Biology, Academia Sinica, Taipei, Taiwan). Cells were maintained in Dulbecco's modified Eagle's medium (DMEM, Sigma-Aldrich) supplemented with 10% fetal bovine serum (FBS) (Gibco). […] For UV irradiation treatment, the cells were irradiated for 10 J/m^2 by a cross-linker (UVP) 1 h prior to analysis.
as §1

[3] = test system: ATM-mediated Chk2 phosphorylation; experiment: Immunoblot of DNA damage-induced Chk2 phosphorylation / ATM autophosphorylation; format: cell-based, human; conditions: for UV-induced or H2O2-induced Chk2 phosphorylation: HEK293T cells with siRNAs against ATM and DNA-PKcs
Text: as §2, §3, §4, §1

[4] = test system: A549 cells, MDA-MB-231 cells; experiment: Cancer cell growth at low doses (FIGS. 19, 20); format: cell-based, human; conditions: low doses (I-1 0.25-1 μM, II-1 0.1-0.4 μM)
DNA replication = experiment: EdU incorporation assay of DNA replication; format: cell-based
Description: DNA replication was measured using a Click-it EdU assay kit, which is based on incorporation of the thymidine analogue 5-ethynyl-2'-deoxyuridine (EdU) into DNA during replication (Invitrogen). Then, 10 μM EdU was added to the cell culture medium 30 min before the cells were harvested and fixed in 4% paraformaldehyde. After cycloaddition, EdU was detected with Alexa Fluor 647 using click reaction catalyzed by Cu (II), and the DNA content was stained by CellCycle 405-blue. […] An FITC Annexin V apoptosis detection kit was used to characterize the phenotype of cell death based on PI and Annexin V double staining (BD Pharmingen, San Diego, Calif.). Fluorescence-labeled cells were subsequently analyzed by the BD LSR II flow cytometer with a suitable selection of excitation and emission wavelengths. The percentages of different fluorescent cells were analyzed using WinMDI Ver. 2.9.

[5] = 6 hrs after release from synchronization
[6] = 9 hrs after release from synchronization
[7] = A594 cells, 0.1 mM H2O2 for 2 h

SMILES	Cell cycle G1 (synchronized cells; [5]) [%]	Cell cycle G2M (synchronized cells; [5]) [%]	Cell cycle S (synchronized cells; [5]) [%]	Percentage of G2/M cells compared with control group, in words (synchronized cells)	Cell cycle G1 (synchronized cells; [6]) [%]	Cell cycle G2M (synchronized cells; [6]) [%]	Cell cycle S (synchronized cells; [6]) [%]	UV-induced or H2O2-induced Chk2 phosphorylation [3]	Cancer growth [4]	also measured
O=C1C=CC(O)(c2cc(=O)c3c(O)cc(O)cc3o2)C=C1 [Compound I-1, Protoapigenone]	25.45	0.41	69.13	significantly reduce	21.41	16.46	60.89	not altered	significantly slowed cancer growth in a dose-dependent manner	GFP cell (%) (HeLa cells; 2.0 μM): 0.807 ± 0.0403%; GFP cell (%) (HeLa cells; 4.0 μM): 0.213 ± 0.0105%; Repair of chromosomal breaks by HRR, in words (HeLa cells; low concentrations): dose-dependently inhibited; p53 protein accumulation ([1]; HEK293T cells): slight accumulation of the p53 protein; Change of putative DDR signaling (phosphorylation of Chk2 Thr68 and Chk1 Ser345) ([1]; HEK293T cells, high doses (10 μM, FIG. 2)): did not induce noticeable changes; MAPKAPK2 phosphorylation (p38 MAPK target) ([1]; HEK293T cells, time after exposure): phosphorylated starting as early as 2 h; Reversal of inhibition of Chk1 phosphorylation by okadaic acid or MG132 pretreatment ([2]; 50 μM OA or 20 μM MG132, 10 J/m^2 UV 1 h): could not reverse; Chk1 phosphorylation [2, 7]: inhibit; Reversal of Chk1 phosphorylation inhibition by overexpression of ATR mediators ([2]; HEK293T cells overexpressing ATRIP, TopBP1, claspin or ATR, 10 J/m^2 UV, 1 h): overexpression of ATRIP or TopBP1 did not reverse the inhibitory effect of Protoapigenone (I-1) on Chk1 phosphorylation, whereas overexpression of claspin or ATR did; ATM autophosphorylation [3, 7]: not affected; Chk2 phosphorylation [3, 7]: promote; Percentage of EdU incorporation compared with control group (DNA replication; 4 μM): efficiently reduce
O=C1C=CC(O)(c2cc(=O)c3c(ccc4ccccc43)o2)C=C1 [Compound II-1, 3-(1-hydroxy-4-oxo-cyclohexa-2,5-dienyl)-1H-benzo[f]chromen-1-one]	21.72	4.59	72.01	significantly reduce	15.50	20.45	63.06	increased	significantly slowed cancer growth in a dose-dependent manner	Dose lower than that of Protoapigenone (I-1) for similar HRR effects (HeLa cells): 10 fold; GFP cell (%) (HeLa cells; 0.2 μM): 0.703 ± 0.0304%; GFP cell (%) (HeLa cells; 0.4 μM): 0.17%; Chk2 activation by compound itself ([1]; high dose, no DNA damage (FIGS. 3(a), 3(b))): slightly induces; Potency in inhibiting Chk1 phosphorylation, comparison ([2]; FIGS. 6(a), 6(b)): more potent than Protoapigenone (I-1); Percentage of EdU incorporation compared with control group (DNA replication; 0.4 μM): efficiently reduce
